Experimental findings from patent publication US20250089717A1, “FUNGICIDAL HALOMETHYL KETONES, HYDRATES AND ENOL ETHERS AND THEIR MIXTURES” (FMC CORPORATION, priority 2023, published 2025) are described below.

One experiment has as its system Phakopsora pachyrhizi. As to the kind of experiment: Test A: preventive spray on soybean seedlings, Asian soybean rust, visual disease rating. The experiment is classed as in vivo. Particulars: rate 10 ppm. The text has this: General protocol for preparing test suspensions for Test A: the test compounds were first dissolved in acetone in an amount equal to 3% of the final volume and then suspended at the desired concentration (in ppm) in acetone and purified water (50/50 mix by volume) containing 250 ppm of the surfactant PEG400 (polyhydric alcohol esters). The resulting test suspensions were then used in Test A.
The test solution was sprayed to the point of run-off on soybean seedlings. The following day the seedlings were inoculated with a spore suspension of Phakopsora pachyrhizi (the causal agent of Asian soybean rust) and incubated in a saturated atmosphere at 22° C. for 24 h and then moved to a growth chamber at 22° C. for 8 days, after which time visual disease ratings were made.
A rating of 100 indicates 100% disease control and a rating of 0 indicates no disease control (relative to the controls).
For the compound `C=CCOC(=O)Cc1cnn(Cc2ccc(O/C=C(\OCC)C(F)(F)F)cc2)c1` [compound 14], the “Test A rating (100 = 100% disease control, 0 = no disease control relative to the controls)” value is recorded as 96%.
For `CCO/C(=C\Oc1ccc(Cn2cc(COC(=O)C(Cl)Cl)cn2)cc1)C(F)(F)F` [compound 16], the “Test A rating (100 = 100% disease control, 0 = no disease control relative to the controls)” value amounted to 100%.
As to `CCO/C(=C\Oc1ccc(Cn2cc(COC(=O)C(F)(F)Cl)cn2)cc1)C(F)(F)F` [compound 19], the “Test A rating (100 = 100% disease control, 0 = no disease control relative to the controls)” value is on record as 100%.
As for `CCO/C(=C\Oc1ccc(Cn2cc(CON(C(C)=O)C(C)=O)cn2)cc1)C(F)(F)F` [compound 20], the “Test A rating (100 = 100% disease control, 0 = no disease control relative to the controls)” value was determined as 79%.
Regarding `CCO/C(=C\Oc1ccc(Cn2cc(COC(=O)CC#N)cn2)cc1)C(F)(F)F` [compound 24], the “Test A rating (100 = 100% disease control, 0 = no disease control relative to the controls)” value stood at 100%.
`CCO/C(=C\Oc1ccc(Cn2cc(C(=O)NOCC3CC3)cn2)cc1)C(F)(F)F` [compound 25]: the “Test A rating (100 = 100% disease control, 0 = no disease control relative to the controls)” value came to 100%.
As for `CCO/C(=C\Oc1ccc(Cn2cc(COC(=O)CCC(=O)OC)cn2)cc1)C(F)(F)F` [compound 26], the “Test A rating (100 = 100% disease control, 0 = no disease control relative to the controls)” value was found to be 100%.
For `CCO/C(=C\Oc1ccc(Cn2cc(COC(=O)C3CCCC3)cn2)cc1)C(F)(F)F` [compound 29], the “Test A rating (100 = 100% disease control, 0 = no disease control relative to the controls)” value was found to be 100%.
Still for that read-out and setting: the same measure for `CCO/C(=C\Oc1ccc(Cn2cc(C(=O)NOCC=CCl)cn2)cc1)C(F)(F)F` [compound 32]: 100%.
Same read-out and setting: the same measure for `CCO/C(=C\Oc1ccc(Cn2cc(C(=NOCC3CC3)OC)cn2)cc1)C(F)(F)F` [compound 34]: 97%.
In the case of `CCO/C(=C\Oc1ccc(Cn2cc(COC(=O)C(CC)CC)cn2)cc1)C(F)(F)F` [compound 36], the “Test A rating (100 = 100% disease control, 0 = no disease control relative to the controls)” value was 100%.
In the case of `CCO/C(=C\Oc1ccc(Cn2cc(C(=O)N(C)OCC3CC3)cn2)cc1)C(F)(F)F` [compound 39], the “Test A rating (100 = 100% disease control, 0 = no disease control relative to the controls)” value is 100%.
Turning to `C=CCON(CC)C(=O)c1cnn(Cc2ccc(O/C=C(\OCC)C(F)(F)F)cc2)c1` [compound 41], the “Test A rating (100 = 100% disease control, 0 = no disease control relative to the controls)” value was 94%.
The same measure, in the same setting: then `C=CCON=C(OCCCC)c1cnn(Cc2ccc(O/C=C(\OCC)C(F)(F)F)cc2)c1` [compound 42], with 96%; and `C=CCON(CCCC)C(=O)c1cnn(Cc2ccc(O/C=C(\OCC)C(F)(F)F)cc2)c1` [compound 43], with 87%.
As for `C#CCC(=O)OCc1cnn(Cc2ccc(O/C=C(\OCC)C(F)(F)F)cc2)c1` [compound 44], the “Test A rating (100 = 100% disease control, 0 = no disease control relative to the controls)” value worked out at 100%.
Turning to `CCO/C(=C\Oc1ccc(Cn2cc(COC(=O)CC(C)(C)C)cn2)cc1)C(F)(F)F` [compound 49], the “Test A rating (100 = 100% disease control, 0 = no disease control relative to the controls)” value is 99%.
For the compound `CCO/C(=C\Oc1ccc(Cn2cc(COC(=O)C3CC3)cn2)cc1)C(F)(F)F` [compound 51], the “Test A rating (100 = 100% disease control, 0 = no disease control relative to the controls)” value amounted to 100%.
As to `CCOC(=O)OCc1cnn(Cc2ccc(O/C=C(\OCC)C(F)(F)F)cc2)c1` [compound 53], the “Test A rating (100 = 100% disease control, 0 = no disease control relative to the controls)” value was 100%.
With `CCO/C(=C\Oc1ccc(Cn2cc(C(N)=NO)cn2)cc1)C(F)(F)F` [compound 56], the “Test A rating (100 = 100% disease control, 0 = no disease control relative to the controls)” value stood at 84%.
In the case of `CCO/C(=C\Oc1ccc(Cn2cc(COCC3(C)CC3)cn2)cc1)C(F)(F)F` [compound 57], the “Test A rating (100 = 100% disease control, 0 = no disease control relative to the controls)” value is listed as 100%.
Still for that read-out and setting: then `CCO/C(=C\Oc1ccc(Cn2cc(COC3CCC3)cn2)cc1)C(F)(F)F` [compound 59], with 100%; and `C=CCONC(=O)c1cnn(CCCc2ccc(O/C=C(\OCC)C(F)(F)F)cc2)c1` [compound 60], with 96%; and `C=CCON=C(OCC)c1cnn(CCc2ccc(O/C=C(\OCC)C(F)(F)F)cc2)c1` [compound 61], with 100%.
With `C=CCONC(=O)c1cnn(CCc2ccc(O/C=C(\OCC)C(F)(F)F)cc2)c1` [compound 62], the “Test A rating (100 = 100% disease control, 0 = no disease control relative to the controls)” value turned out to be 100%.
`CCO/C(=C\Oc1ccc(Cn2cc(COCC3CCCC3)cn2)cc1)C(F)(F)F` [compound 63]: the “Test A rating (100 = 100% disease control, 0 = no disease control relative to the controls)” value is 100%.
For the compound `CCO/C(=C\Oc1ccc(Cn2cc(COCC3CC3)cn2)cc1)C(F)(F)F` [compound 64], the “Test A rating (100 = 100% disease control, 0 = no disease control relative to the controls)” value was determined as 100%.
Regarding `C#CCOCc1cnn(Cc2ccc(O/C=C(\OCC)C(F)(F)F)cc2)c1` [compound 65], the “Test A rating (100 = 100% disease control, 0 = no disease control relative to the controls)” value was 100%.
In the case of `C=CCOCc1cnn(Cc2ccc(O/C=C(\OCC)C(F)(F)F)cc2)c1` [compound 66], the “Test A rating (100 = 100% disease control, 0 = no disease control relative to the controls)” value stood at 100%.
Regarding `CCO/C(=C\Oc1ccc(Cn2cc(C(=O)NOCCO)cn2)cc1)C(F)(F)F` [compound 67], the “Test A rating (100 = 100% disease control, 0 = no disease control relative to the controls)” value was found to be 100%.
Consider `CCO/C(=C\Oc1ccc(Cn2cccc(C(=O)NOCC#N)c2=O)cc1)C(F)(F)F` [compound 98], for which the “Test A rating (100 = 100% disease control, 0 = no disease control relative to the controls)” value is reported as 99%.
Still for that read-out and setting: then `C#CCON(C)C(=O)c1cccn(Cc2ccc(O/C=C(\OCC)C(F)(F)F)cc2)c1=O` [compound 99], with 92%; and `C#CCONC(=O)c1cccn(Cc2ccc(O/C=C(\OCC)C(F)(F)F)cc2)c1=O` [compound 100], with 98%.
Turning to `CCO/C(=C\Oc1ccc(Cn2cccc(C(=O)N(C)OCCOC)c2=O)cc1)C(F)(F)F` [compound 101], the “Test A rating (100 = 100% disease control, 0 = no disease control relative to the controls)” value was 94%.
Consider `CCO/C(=C\Oc1ccc(Cn2cccc(C(=O)N(C)OCC3CC3)c2=O)cc1)C(F)(F)F` [compound 102], for which the “Test A rating (100 = 100% disease control, 0 = no disease control relative to the controls)” value was 99%.
Turning to `CCO/C(=C\Oc1ccc(Cn2cccc(C(=O)NOCCOC)c2=O)cc1)C(F)(F)F` [compound 103], the “Test A rating (100 = 100% disease control, 0 = no disease control relative to the controls)” value is 97%.
On to `CCO/C(=C\Oc1ccc(Cn2cccc(C(=O)NOCC3CC3)c2=O)cc1)C(F)(F)F` [compound 104], for which the “Test A rating (100 = 100% disease control, 0 = no disease control relative to the controls)” value is on record as 100%.

The experiment is the same for the next values; noted with them: rate 10 ppm, read-out: Test A rating (100 = 100% disease control, 0 = no disease control relative to the controls).
For the compound `C=CCO/N=C(/OCC)c1ccn(Cc2ccc(O/C=C(\OCC)C(F)(F)F)cc2)n1` [compound 110], the pest or weed control at 10 ppm was determined as 99%.
`C=CCONC(=O)c1ccn(Cc2ccc(O/C=C(\OCC)C(F)(F)F)cc2)n1` [compound 111]: the pest or weed control at 10 ppm worked out at 100%.
In the case of `CCO/C(=C\Oc1ccc(Cc2nc(C(=O)NOCCOC)cs2)cc1)C(F)(F)F` [compound 112], the pest or weed control at 10 ppm worked out at 100%.
Turning to `C=CCO/N=C(/OCC)c1cnn(Cc2cccc(O/C=C(\OCC)C(F)(F)F)c2)c1` [compound 113], the pest or weed control at 10 ppm stood at 87%.
With `C=CCONC(=O)c1cnn(Cc2cccc(O/C=C(\OCC)C(F)(F)F)c2)c1` [compound 114], the pest or weed control at 10 ppm is 100%.
Regarding `C=CCONC(=O)c1ccn(Cc2ccc(O/C=C(\OCC)C(F)(F)F)cc2)c1` [compound 115], the pest or weed control at 10 ppm came out at 96%.
As to `CCO/C(=C\Oc1ccc(Cc2nc(C(=O)NOCC3CC3)cs2)cc1)C(F)(F)F` [compound 116], the pest or weed control at 10 ppm was determined as 100%.
For `C=CCONC(=O)c1csc(Cc2ccc(O/C=C(\OCC)C(F)(F)F)cc2)n1` [compound 117], the pest or weed control at 10 ppm turned out to be 100%.
For the compound `C=CCO/N=C(\OCC)c1cc(Cc2ccc(O/C=C(\OCC)C(F)(F)F)cc2)ccn1` [compound 118], the pest or weed control at 10 ppm was determined as 100%.
Regarding `CCO/C(=C\Oc1ccc(Cc2cccc(C(=O)N(C)OCc3ccccc3)n2)cc1)C(F)(F)F` [compound 122], the pest or weed control at 10 ppm was found to be 100%.
In the case of `CCO/C(=C\Oc1ccc(Cc2cccc(C(=O)NOCc3ccccc3)n2)cc1)C(F)(F)F` [compound 126], the pest or weed control at 10 ppm was determined as 99%.
On the same count and under the same terms, then `C=CCONC(=O)c1cc(Cc2ccc(OCC3(C(F)(F)F)OCCO3)cc2)ccn1` [compound 129], with 98%; and `C=CCON(C)C(=O)c1cc(Cc2ccc(OCC3(C(F)(F)F)OCCO3)cc2)ccn1` [compound 130], with 99%.
Consider `C#CCO/N=C(\OC)c1cccc(Cc2ccc(O/C=C(\OCC)C(F)(F)F)cc2)n1` [compound 134], for which the pest or weed control at 10 ppm is 99%.
Consider `C=CCON(C)C(=O)c1cc(Cc2ccc(O/C=C(\OCC)C(F)(F)F)cc2)ccn1` [compound 135], for which the pest or weed control at 10 ppm is 100%.

The experiment is the same for the next values; noted with them: rate 50 ppm.
For `CCO/C(=C\Oc1ccc(Cn2cc(COC(=O)NC)cn2)cc1)C(F)(F)F` [compound 15], the “Test A rating (100 = 100% disease control, 0 = no disease control relative to the controls)” value worked out at 100%.

Staying with this experiment, now noted: rate 250 ppm, read-out: Test A rating (100 = 100% disease control, 0 = no disease control relative to the controls).
Take `C=CCON(CC)C(=O)c1cccc(Cc2ccc(O/C=C(\OCC)C(F)(F)F)cc2)c1` [compound 128]: the pest or weed control at 250 ppm stood at 100%.
